{"source": "patent US20230135373A1", "about": "“METHODS AND COMPOSITIONS FOR TREATING SLEEP APNEA” (APNIMED, INC. (DELAWARE), priority 2020, published 2023)", "key": {"[1]": {"test_system": "healthy human individuals", "assay": "Pilot study of genioglossus muscle activity (EMGGG)", "assay_type": "in vivo", "method": "In healthy human individuals, the effect of once daily taltirelin 5 mg on genioglossus muscle activity is measured in a pilot study.\nA first group of the patients is given once daily taltirelin 5 mg. A second group of patients is given placebo. Genioglossus muscle activity (EMGGG, quantified as a percentage of maximum) is measured during quiet wakefulness. Each peak EMGGG of a single breath is measured and is plotted against the corresponding epiglottic pressure. In addition, EMGGG is measured during stable NREM sleep."}, "[2]": {"test_system": "OSA human patients", "assay": "Placebo-controlled, double-blinded, randomized, crossover trial in OSA", "assay_type": "in vivo", "details": "once daily 5-10 mg, 30 minutes before sleep", "method": "A placebo-controlled, double-blinded, randomized, crossover trial in OSA human patients is performed. Participants receive treatment (once daily taltirelin 5-10 mg) or placebo in randomized order 30 minutes before sleep."}}}
{"smiles": "CN1C(=O)C[C@@H](C(=O)N[C@@H](Cc2cnc[nH]2)C(=O)N2CCC[C@H]2C(N)=O)NC1=O", "note": "[taltirelin]", "values": [{"measurement": "EMGGG activity during NREM sleep compared to placebo", "setting": "[1]; once daily 5 mg, NREM sleep", "result": "much higher EMGGG activity"}, {"measurement": "effect during REM sleep", "setting": "[1]; once daily 5 mg, subjects exhibiting REM sleep", "result": "effective during REM sleep"}, {"measurement": "sleep-related reduction in pharyngeal muscle activity (EMGGG)", "setting": "[1]; once daily taltirelin 5 mg vs placebo night, during sleep", "result": "partially or completely prevented"}, {"measurement": "genioglossus muscle responsiveness to an increase in ventilatory drive", "setting": "[2]", "result": "increased genioglossus muscle responsiveness"}, {"measurement": "oxygen levels (SaO2)", "setting": "[2]", "result": "increased oxygen levels"}, {"measurement": "sleep efficiency", "setting": "[2]", "result": "improved sleep efficiency"}, {"measurement": "total sleep time", "setting": "[2]", "result": "increased total sleep time"}, {"measurement": "upper airway muscle activity", "setting": "[2]", "result": "improved upper airway muscle activity"}, {"measurement": "ventilation", "setting": "[2]", "result": "improved ventilation"}, {"measurement": "OSA severity", "setting": "[2]; all patients", "result": "improvement in OSA severity"}, {"measurement": "apnea hypopnea index", "setting": "[2]; vs placebo", "result": "reduce the apnea hypopnea index"}]}
